Drawing on ChEMBL document CHEMBL1144962, “A new sterol sulfate, Sch 572423, from a marine sponge, Topsentia sp” (Bioorg Med Chem Lett, 2003), this text covers IC50 for 2 molecules.

The test deals with P2Y purinoceptor 12 (Homo sapiens, UniProt Q9H244). The experiment in a line: Binding affinity against Purinergic receptor P2Y12 using [3H]2-methylthio-ADP as radioligand. The test is classed as tissue-based.
P2Y purinoceptor 12, sequence (Q9H244 whole entry): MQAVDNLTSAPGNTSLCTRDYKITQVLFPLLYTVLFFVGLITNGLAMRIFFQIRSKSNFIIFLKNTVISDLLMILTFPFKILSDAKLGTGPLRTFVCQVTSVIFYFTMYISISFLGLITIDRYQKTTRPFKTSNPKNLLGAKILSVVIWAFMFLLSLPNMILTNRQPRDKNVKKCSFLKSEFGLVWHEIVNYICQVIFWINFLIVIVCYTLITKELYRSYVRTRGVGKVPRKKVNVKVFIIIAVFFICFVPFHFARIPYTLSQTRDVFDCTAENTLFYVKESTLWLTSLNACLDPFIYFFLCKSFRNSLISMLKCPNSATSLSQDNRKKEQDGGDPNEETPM

A word on the IC50: it is the concentration needed to halve the response being measured. Lower therefore signals higher potency. Regarding `CC(C(O)C(O)[C@@H](C)C1CC[C@H]2[C@@H]3CC[C@H]4C[C@H](OS(=O)(=O)O)[C@H](OS(=O)(=O)O)C[C@]4(C)[C@@]3(C)CC[C@]12C)C(C)(C)C` (some centres not stated), the IC50 stood at 2200 nM.
With `CC(CC[C@@H](C)C1CC[C@H]2[C@@H]3C[C@H](OS(=O)(=O)O)[C@H]4C[C@H](OS(=O)(=O)O)[C@H](OS(=O)(=O)O)C[C@]4(C)[C@@]3(C)CC[C@]12C)C(C)(C)C` (some centres not stated), the IC50 worked out at 480 nM.
